According to patent publication US5225543A, “Receptors method for purification of G protein-linked” (priority 1991, dated 1993):
Entries after “also recorded” stand apart in the source; their conditions may differ. Where no end group is shown, it is not given here. The star is where a group is joined. Biotin = O=C1N[C@H]2[C@H](CS[C@H]2CCCCC(=O)*)N1; Ahx = NCCCCCC(=O)O

What was measured:
[1] = test system: receptor:ligand complex (GH4 C1 membranes, [^125 I]Tyr11-S14); experiment: Detergent solubilization of specifically bound [^125 I]Tyr11-S14 from GH4 C1 membranes and recovery of intact complex (FIGS. 2, 3); settings: [^125 I]Tyr11-S14, FIG. 2
Experimental: (§1) To solubilize membranes, washed pellets after the binding step are resuspended free of visible particles by pipetting and vortexing in solubilization buffer+1/100 (vol/vol) of 100× 4Pase protease inhibitors+detergent at the desired concentration. After 1 hour on ice, the samples are centrifuged at 100,000×g for 30 minutes. The supernatants are removed and held on ice and the pellets are discarded.
(§2) Sephadex G-50 columns (8×130 mm) are equilibrated with solubilization buffer containing detergent at the concentration used to solubilize membranes and 1 mg/ml bovine serum albumin. 0.2-0.5 ml samples of solubilized membranes are applied to the columns and eluted at a flow rate of about 0.7 ml/minute. 0.18 ml samples are collected. Radioactivity is determined in a gamma counter as described under "Receptor Binding Methods". Void volumes of the columns are determined by the elution volume of blue dextran. Radioactivity eluting in the void volume (>50,000 MW) was considered bound to protein. […] The mixture is held on ice for 15 minutes. Then 3 ml of 0.1M sodium phosphate (pH 7.4) is added to a final part of 4 ml per sample and the samples are rapidly (1-3 seconds) filtered over Whatman GF/B glass fiber filters and washed with 4 ml of the phosphate buffer. […] Whatman GF/B glass fiber filters are soaked in 0.3% polyethyleneimine (PEI, Sigma) for 3 hours. 25-100 ul samples of solubilized membranes are placed in 12×75 mm polypropylene tubes. Then 4 ml of solubilization buffer (without detergent) is added per sample and the samples are immediately filtered through the GFB/PEI filters (1-3 seconds) and washed with 4 ml of solubilization buffer. […] 0.5 gm of Dextran T70 (Pharmacia) is dissolved in 1 liter of water and then 5 gm of activated charcoal (Norit A, alkaline; Fisher Scientific) is added. The suspension is stirred for 10 minutes at room temperature and then stored at 4° C. until use. To measure R:L complex, 4 parts by volume of charcoal/dextran suspension are added to 1 part by volume of solubilized membrane. The samples are mixed and held on ice for 2 minutes and then centrifuged for 2 minutes at 11,000×g in a Beckman microfuge. Free radioligand is adsorbed to charcoal/dextran and is discarded with the pellet.

[2] = target: receptor:ligand complex (GH4 C1 membranes, [^125 I]BioS28) (Rattus norvegicus, UniProt P30680); experiment: Detergent solubilization of receptor:[^125 I]BioS28 complex, charcoal/dextran assay (Table 2A); settings: for Solubilization of specifically bound CPM (%): based on 14,013 cpm specifically bound [^125 I]BioS28 per sample; for Solubilized CPM in intact R:L complex (%): charcoal/dextran method; for solubilization and stabilization of receptor:ligand complex: [^125 I]BioS28, Table 2A
Chain of receptor:ligand complex (GH4 C1 membranes, [^125 I]BioS28) (P30680 whole entry, one chain of several): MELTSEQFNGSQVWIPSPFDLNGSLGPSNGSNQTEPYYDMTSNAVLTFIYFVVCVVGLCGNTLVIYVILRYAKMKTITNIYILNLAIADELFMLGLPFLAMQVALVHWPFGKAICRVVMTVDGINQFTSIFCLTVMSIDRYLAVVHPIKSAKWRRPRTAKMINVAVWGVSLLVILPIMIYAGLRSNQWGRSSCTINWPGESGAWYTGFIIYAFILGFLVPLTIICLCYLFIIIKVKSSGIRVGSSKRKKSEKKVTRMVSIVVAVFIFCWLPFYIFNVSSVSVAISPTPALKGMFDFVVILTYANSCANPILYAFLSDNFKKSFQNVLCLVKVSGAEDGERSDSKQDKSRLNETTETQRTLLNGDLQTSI
Experimental: as §1, §2
Membrane solubilization is conducted as already described; however, determination of the presence of the intact receptor:ligand complex in the 100,000×g supernatant is accomplished by charcoal/dextran assay ("Methods: Assay of Solubilized, 4.").

[3] = test system: streptavidin; experiment: Effect of detergent on binding of solubilized R:L complex to streptavidin (Table 2B); settings: for % of original R:L complex bound to SA: % R:L bound to SA × % solubilization of original R:L complex; for % of intact R:L nonbound to SA in 5 hours: streptavidin-agarose, charcoal/dextran assay
Experimental: The final determination is whether the detergent interferes with binding of the receptor:[^125 I]BioS-28. […] R:L complex in the supernatants ("non-bound to SA") after this time is measured by the charcoal/dextran assay. The % of non-bound, intact R:L complex is calculated from the ratio (R:L non-bound to SA/original R:L in the 100,000×g supernatant). The % of intact R:L complex bound to SA is calculated by subtracting % non-bound R:L from 100%. Finally, % of original R:L bound to SA=% R:L bound to SA×% solubilization of original membrane-bound R:L complex.

[4] = target: T1, SRIF receptor (GH4 C1 membranes) (Rattus norvegicus, UniProt P30680); experiment: Competitive radioligand binding vs [^125 I]Tyr11-S14 on GH4 C1 membranes (FIG. 4); settings: for IC50: vs [^125 I]Tyr11-S14, 20 ug GH4 C1 membrane protein, 100,000 cpm (FIG. 4B)
T1 construct: GH4 C1 rat pituitary tumor cells; endogenous in cells; host or cells: GH4 C1 rat pituitary tumor cells (isolated membranes)
T1 sequence (P30680 whole entry): as the sequence (P30680 whole entry, one chain of several) above
Experimental: Membrane Isolation--1-8 liter batches of cells at densities of 6-10×10^5 cells/ml are pelleted in conical bottom glass centrifuge bottles (600 or 800 ml; Bellco) at 1,000× g for 5 min. The supernatants are carefully poured off and the cells are resuspended in ice cold homogenization medium (1 mM Na-bicarbonate at pH 7.6, 1 mM EDTA and 1 mM EGTA) containing 0.7% (vol/vol) of the "100×4pase" protease inhibitor cocktail (see below). Twenty ml of homogenization medium is used for every liter of suspension culture. After 5 min. on ice, the hypotonically swollen cells are homogenized with 10 strokes of a tight fitting Dounce homogenizer (Kontes, type A pestle). The homogenate is centrifuged at 1,000× g for 10 min. and the supernatant is removed and kept on ice. The 1,000× g pellet containing residual intact cells, nuclei and DNA is washed by gently homogenizing with 4 strokes with a type B pestle in one half the original volume of homogenization medium and recentrifuging for 10 min. at 1,000× g. The final 1,000× g pellet consists mostly of DNA and is discarded. The 1,000× g supernatants are combined and centrifuged at 20,000× g for 30 min. The 20,000× g pellet is washed twice in 25 mM Tris (pH 7.4), with centrifugation for 25 min. at 20,000 2 g. Final membrane pellets are resuspended in 25 mM Tris buffer to concentrations of 4-10 mg membrane protein/ml. Then the 100× 4pase protease inhibitor cocktails are added to 1% of final volume and aliquots are frozen on dry ice. Membranes are stored at -90° C. until needed. Membrane protein is assayed with the Bradford dye binding assay (Bio-Rad).
Standard Binding Assays--Binding assays are done in a binding buffer containing 50 mM HEPES (pH 7.4), 0.5% BSA and 5 mM MgCl2. The standard assay for [^125 I]SRIF analog binding to GH4 CL membranes, done in 96 well microtiter plates (Dynatech Immulon II Removawell plates), is carried out as follows: 1. Radioligand is diluted in binding buffer+PMSF/Baci to the desired cpm per vol. of 50 μl and then 50 μl aliquots are added to the wells. For non-specific binding samples, 5 μl of 40 μM cold S14 is also added per well. […] Binding is initiated by adding 150 μl per well of membrane diluted to the desired concentration (10-30 ug membrane protein/well) in binding buffer+PMSF/Baci. Plates are then covered with Linbro mylar plate sealers (Flow Labs) and placed on a Dynatech Microshaker II and binding is allowed to proceed at room temperature for 1-2 hours. Binding is stopped by centrifuging the plate for 15 minutes at 2,000×g. The supernatants are dumped off and membrane pellets washed once by addition of 200 μl of ice cold binding buffer, brief shaking and recentrifugation. Finally the individual wells are placed in 12×75 mm tubes and counted in an LKB Gammamaster counter (78% efficiency). […]

Row | Compound | solubilization of receptor:ligand complex / bound radioligand [1] | % Solubilization of original R:L in membranes (A × B) [2] [%] | Solubilization of specifically bound CPM (%) [2] [%] | Solubilized CPM in intact R:L complex (%) [2] [%] | % of intact R:L bound to SA (100% - A) [3] [%] | % of original R:L complex bound to SA [3] [%] | % of intact R:L nonbound to SA in 5 hours [3] [%] | solubilization and stabilization of receptor:ligand complex [2] | potency relative to S14 in competitive binding assay ([4]; % the potency of S14, 40 ug membrane protein, 85,000 cpm (FIG. 4A)) | IC50 [4] [nM]
1 | C[C@H](CCC(=O)NCCC[N+](C)(C)CCCS(=O)(=O)[O-])[C@H]1CC[C@H]2[C@@H]3[C@H](O)C[C@@H]4C[C@H](O)CC[C@]4(C)[C@H]3C[C@H](O)[C@]12C [CHAPS] | total solubilization of radioligand is relatively low; also recorded: did not solubilize well at all at any concentration tested | 12 | 38 | 32 | 56 | 7 | 44 |  |  | 
2 | C[C@H](CCC(=O)O)[C@H]1CC[C@H]2[C@@H]3CC[C@@H]4C[C@H](O)CC[C@]4(C)[C@H]3C[C@H](O)[C@]12C [Deoxycholate] | superior solubilization | 31 | 93 | 33 | 89 | 29 | 11 | satisfactory results |  | 
3 | C[C@@H]1CC[C@@]2(OC1)O[C@H]1[C@@H](O)[C@H]3[C@@H]4CC[C@H]5C[C@@H](O[C@@H]6O[C@H](CO)[C@H](O[C@@H]7O[C@H](CO)[C@@H](O)[C@H](O[C@@H]8OC[C@@H](O)[C@H](O)[C@H]8O)[C@H]7O[C@@H]7O[C@H](CO)[C@H](O)[C@H](O[C@@H]8O[C@H](CO)[C@@H](O)[C@H](O)[C@H]8O)[C@H]7O)[C@H](O)[C@H]6O)[C@H](O)C[C@]5(C)[C@H]4CC[C@]3(C)[C@H]1[C@@H]2C [Digitonin] | less satisfactory but adequate levels of solubilization | 28 | 55 | 50 | 87 | 24 | 13 | satisfactory results |  | 
4 | Biotinyl-NH--SRIF14 [Bio-S14] |  |  |  |  |  |  |  |  | about 1.5% | 
5 | Biotinyl-[NH--(CH2)5 --CO]2 --NH-(Tyr11)SRIF14 ({Biotin-Ahx-Ahx}-AGCKNFFWKTYTSC; ends and bridges not checked; UniProt P61278 103-116, looked up, variant F11Y) [Bio-12C-S14] |  |  |  |  |  |  |  |  |  | 2
6 | Biotinyl-[NH--(CH2)5 --CO]--NH-(Tyr11)SRIF14 ({Biotin-Ahx}-AGCKNFFWKTYTSC; ends and bridges not checked; UniProt P61278 103-116, looked up, variant F11Y) [Bio-6C-S14] |  |  |  |  |  |  |  |  |  | 2
7 | Lysolecithin | less satisfactory but adequate levels of solubilization | 33 | 73 | 46 | 36 | 16 | 65 | satisfactory results |  | 
